Measurements: US20170107179A1 (Tetraphase Pharmaceuticals, Inc., priority 2010, published 2017)
≈ marks a conversion by molar mass, not a printed value. Where two headings read alike, the source gives them in different places.

Tests used:
[1] = system: S. pneumoniae strain SP514; experiment: Immunocompetent CD-1 murine lung infection model; format: in vivo; conditions: immunocompetent CD-1 mice, SP514, orally dosed 30 mg/kg at 5, 24 and 36 hours post-infection (FIG. 2)
Method: Compound 102 was tested in an immunocompetent CD-1 murine model of lung infection challenged with S. pneumoniae strain SP514.

[2] = system: Gram-negative and Gram-positive organisms (clinical isolates); experiment: Broth microdilution MIC against clinical isolates (CLSI M7-A8), Table 9; format: cell-based
S. pneumoniae SP106 = format: cell-based; conditions: SP106, plates containing compound at 5× the MIC, 5% sheep blood
S. aureus SA101 = format: cell-based; conditions: SA101, plates containing compound at 5× the MIC
Gram-positive pathogens = experiment: Broth microdilution MIC, respiratory/skin pathogens (Table 12)
M. catarrhalis (n = 50) = experiment: Broth microdilution MIC, respiratory pathogens (Table 13)
[3] = Streptococcus intermedius, n=30
[4] = Staphylococcus aureus (MRSA PVL+), n=30
[5] = Stenotrophomonas maltophilia, n=29

CC(=O)NC[C@H]1CN(c2ccc(N3CCOCC3)c(F)c2)C(=O)O1 [linezolid, Linezolid]
log10 reduction in CFU versus the 48 hour untreated control [1]: 3.56±0.63 log10 | MIC50 ([2]; Staphylococcus aureus, Staphylococcus aureus (MRSA PVL+), n=30, read-out: MIC50): 1 µg/mL (≈ 2.96 µM) | MIC90 ([2]; Staphylococcus aureus, Staphylococcus aureus (MRSA PVL+), n=30, read-out: MIC90): 2 µg/mL (≈ 5.93 µM) | MIC50 ([2]; Staphylococcus aureus, Staphylococcus aureus MRSA (includes MRSA PVL+ group), n=105, read-out: MIC50): 2 µg/mL (≈ 5.93 µM) | MIC90 ([2]; Staphylococcus aureus, Staphylococcus aureus MRSA (includes MRSA PVL+ group), n=105, read-out: MIC90): 4 µg/mL (≈ 11.9 µM) | MIC50 ([2]; Streptococcus anginosus, n=20): 0.5 µg/mL (≈ 1.48 µM) | MIC90 ([2]; Streptococcus anginosus, n=20): 1 µg/mL (≈ 2.96 µM) | MIC50 [2, 3]: 1 µg/mL (≈ 2.96 µM) | MIC90 [2, 3]: 1 µg/mL (≈ 2.96 µM) | MIC50 ([2]; Streptococcus mitis, n=29): 1 µg/mL (≈ 2.96 µM) | MIC90 ([2]; Streptococcus mitis, n=29): 1 µg/mL (≈ 2.96 µM) | MIC50 ([2]; Streptococcus sanguis, n=18, read-out: MIC50): 0.5 µg/mL (≈ 1.48 µM) | MIC90 ([2]; Streptococcus sanguis, n=18, read-out: MIC90): 1 µg/mL (≈ 2.96 µM)

CO[C@H]1/C=C/O[C@@]2(C)Oc3c(C)c(O)c4c(O)c(c(/C=N/N5CCN(C)CC5)c(O)c4c3C2=O)NC(=O)/C(C)=C\C=C\[C@H](C)[C@H](O)[C@@H](C)[C@@H](O)[C@@H](C)[C@H](OC(C)=O)[C@@H]1C [rifampin, reference compound]
spontaneous resistance frequency (S. pneumoniae SP106): 2.88×10^−7 | spontaneous resistance frequency (S. aureus SA101): 2.0×10^−8

Gentamicin
MIC50 (Gram-positive pathogens; CoNS, MRCoNS (n = 26)): 0.25 µg/mL | MIC90 (Gram-positive pathogens; CoNS, MRCoNS (n = 26)): > 8 µg/mL | MIC50 (Gram-positive pathogens; CoNS, MSCoNS (n = 26)): 0.12 µg/mL | MIC90 (Gram-positive pathogens; CoNS, MSCoNS (n = 26)): 0.25 µg/mL | MIC50 (Gram-positive pathogens; E. faecalis, VAN NS (n = 48)): > 8 µg/mL | MIC90 (Gram-positive pathogens; E. faecalis, VAN NS (n = 48)): > 8 µg/mL | MIC50 (Gram-positive pathogens; E. faecalis, VAN S (n = 53)): > 8 µg/mL | MIC90 (Gram-positive pathogens; E. faecalis, VAN S (n = 53)): > 8 µg/mL | MIC50 (Gram-positive pathogens; E. faecium, VAN NS (n = 51)): 8 µg/mL | MIC90 (Gram-positive pathogens; E. faecium, VAN NS (n = 51)): > 8 µg/mL | MIC50 (Gram-positive pathogens; E. faecium, VAN S (n = 49)): 8 µg/mL | MIC90 (Gram-positive pathogens; E. faecium, VAN S (n = 49)): > 8 µg/mL | MIC50 (Gram-positive pathogens; S. aureus, MSSA (n = 50)): 0.25 µg/mL | MIC90 (Gram-positive pathogens; S. aureus, MSSA (n = 50)): 0.5 µg/mL | MIC50 (Gram-positive pathogens; S. saprophyticus (n = 36)): ≦0.06 mg/mL | MIC90 (Gram-positive pathogens; S. saprophyticus (n = 36)): ≦0.06 mg/mL | MIC50 (M. catarrhalis (n = 50)): 0.12 µg/mL | MIC90 (M. catarrhalis (n = 50)): 0.12 µg/mL | MIC50 ([2]; Acinetobacter lwoffii, n=29): ≦0.25 μg/ml | MIC90 ([2]; Acinetobacter lwoffii, n=29): 1 µg/mL | MIC50 ([2]; Enterobacter aerogenes, n=30): ≦0.25 μg/ml | MIC90 ([2]; Enterobacter aerogenes, n=30): 0.5 µg/mL | MIC50 ([2]; Enterobacter cloacae, n=29): 0.5 µg/mL | MIC90 ([2]; Enterobacter cloacae, n=29): >8 µg/mL | MIC50 ([2]; Escherichia coli, n=40): 2 µg/mL | MIC90 ([2]; Escherichia coli, n=40): >8 µg/mL | MIC50 ([2]; Kiebsielia oxytoca, n=30): 0.5 µg/mL | MIC90 ([2]; Kiebsielia oxytoca, n=30): 2 µg/mL | MIC50 ([2]; Klebsiella pneumonia, n=27): >8 µg/mL | MIC90 ([2]; Klebsiella pneumonia, n=27): >8 µg/mL | MIC50 ([2]; Morganella morganii, n=30): 1 µg/mL | MIC90 ([2]; Morganella morganii, n=30): >8 µg/mL | MIC50 ([2]; Proteus vulgaris, n=29): 1 µg/mL | MIC90 ([2]; Proteus vulgaris, n=29): >8 µg/mL | MIC50 ([2]; Salmonella species, n=30): 0.5 µg/mL | MIC90 ([2]; Salmonella species, n=30): 1 µg/mL | MIC50 ([2]; Serratia marcescens, n=30): 0.5 µg/mL | MIC90 ([2]; Serratia marcescens, n=30): 1 µg/mL | MIC50 ([2]; Shigella species, n=30): 1 µg/mL | MIC90 ([2]; Shigella species, n=30): 1 µg/mL | MIC50 [2, 4]: 0.25 µg/mL | MIC90 [2, 4]: 0.5 µg/mL | MIC50 [2, 5]: >8 µg/mL | MIC90 [2, 5]: >8 µg/mL
